Data: US20060040911A1, “Method for preventing and/or treating the cardiovascular and hepatic diseases induced by hyperlipidemia which comprises administered an effective amount of bioflavonoids extract derived from fructus crataegus (lipid metabolism and fructus crataegus)” (priority 2003, published 2006)

Legend:
[1] = system: liver of rabbits fed 1% cholesterol diet; assay: Fatty degeneration in the liver of the rabbits; type: in vivo, rabbit; conditions: 1% cholesterol plus 0.15% bioflavonoid or 1.5 mg/kg Simvastatin
Text: According to the report of Fogt F. and Nanji A., (Toxicology and Applied Pharmacology; 136, pp 87-93, 1996) and Keegan A. et al., (Journal of Hepatology; 23, pp 591-600, 1995). […]

ICR female mice = conditions: single oral dose (rutin 1500, quercetin 125, kaempherol 1000, vitexin 500 mg/kg), observed 30 days
[2] = system: thoracic aorta of rabbits fed 1% cholesterol diet; assay: Analysis for fatty streak deposition in thoracic aorta; type: in vivo, rabbit; conditions: microscopic pictures, 1% cholesterol plus 0.15% bioflavonoid or 1.5 mg/kg simvastatin, control: thick layer
Protocol: The chest wall of each rabbit (sacrificed in Step B) was incised, a portion of thoracic aorta from 1 cm site above aortic valve downward for 5 cm was cut out. The surrounding fatty tissues were removed, the aorta was incised longitudinally and pinned to a dish. The moist aorta was then photographed, and staining of fatty streak was carried out with the method described by Esper, E. et al. (Journal of Lab. Clinical Medicine; 121, pp 103-110(1993)) as follows.
The opened portion of aortas were pinned to a wooden tongue depressor, washed three times for 2 minutes with anhydrous propylene glycol and stained for 30 minutes with saturated solution of Oil Red O dissolved in propylene glycol. Then the aortas were washed twice for 3 minutes with 85% propylene glycol, to remove remaining staining solution by washing with normal saline solution. The aortas were photographed, and the photographs were traced with an image analyzer (LEICA, Q-600, Germany), and the area of stained portion were fatty streak region, its proportion in percentile (%) to the total aorta area were calculated.

3-HMG-CoA reductase = molecular target: T1, 3-HMG-CoA reductase (Oryctolagus cuniculus, UniProt Q29512); assay: Activity of 3-HMG-CoA reductase in liver microsomes (modified Hulcher's method); type: biochemical, rabbit; conditions: liver microsomes of rabbits fed 8 weeks 1% cholesterol plus 0.15% bioflavonoid; control group 0%
T1 construct: ultracentrifuged at 100,000 times gram for 60 minutes and again for another 60 minutes to obtain microsomal precipitates; from tissue; host or cells: rabbit liver microsomes
T1 sequence (Q29512 1-888): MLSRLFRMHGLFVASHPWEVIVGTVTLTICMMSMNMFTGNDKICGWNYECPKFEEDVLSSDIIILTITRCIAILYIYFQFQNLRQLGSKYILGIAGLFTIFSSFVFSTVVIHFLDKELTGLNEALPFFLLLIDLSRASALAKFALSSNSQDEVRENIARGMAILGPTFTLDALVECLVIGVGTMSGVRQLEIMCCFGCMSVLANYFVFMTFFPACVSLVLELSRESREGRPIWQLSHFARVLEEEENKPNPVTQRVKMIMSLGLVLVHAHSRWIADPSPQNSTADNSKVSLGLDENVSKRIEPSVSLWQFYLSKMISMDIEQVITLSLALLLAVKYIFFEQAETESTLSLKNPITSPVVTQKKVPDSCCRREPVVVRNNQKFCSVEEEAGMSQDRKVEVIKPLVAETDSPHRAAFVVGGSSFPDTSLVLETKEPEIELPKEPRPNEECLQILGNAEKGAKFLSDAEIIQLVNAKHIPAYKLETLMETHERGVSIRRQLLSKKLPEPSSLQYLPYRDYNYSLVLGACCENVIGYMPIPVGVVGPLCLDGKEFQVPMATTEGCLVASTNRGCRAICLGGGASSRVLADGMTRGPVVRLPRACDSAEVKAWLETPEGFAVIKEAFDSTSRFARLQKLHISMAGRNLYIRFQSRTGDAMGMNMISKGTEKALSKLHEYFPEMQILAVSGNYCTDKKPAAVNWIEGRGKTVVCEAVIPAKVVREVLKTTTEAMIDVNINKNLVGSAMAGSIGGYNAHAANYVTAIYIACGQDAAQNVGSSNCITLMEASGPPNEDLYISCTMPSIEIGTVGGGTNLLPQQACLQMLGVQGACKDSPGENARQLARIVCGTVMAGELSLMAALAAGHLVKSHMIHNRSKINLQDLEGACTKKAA
Protocol: The activity of 3-HMG-CoA reductase was determined by modified Hulcher's method (Journal of lipid research; 14, 625-641, 1973), in which the concentration of Co-A will be produced when 3-HMG-CoA is reduced to mevalonate salt by the action of the 3-HMG-CoA reductase; then the reductase was determined by spectroscopy and the activity of the 3-HMG-CoA reductase was calculated.
Liver tissues from each group of rabbits from Example 4 Step B were obtained, 3 gram of tissue was washed with 100 ml of cold normal saline (1 N NaCl) and 100 ml of cold buffer solution-A (0.1M triethanolamine HCl/10 mM EDTA/10 mM dithiothreitol (DTT)). A cold buffered solution-A and liver tissue ratio was 2 ml per each gram. Then the mixture was minced and homogenized with a homogenizer, the homogenate was centrifuged at 20,000 times gram for 15 minutes, the supernatant was ultracentrifuged at 100,000 times gram for 60 minutes and again for another 60 minutes to obtain microsomal precipitates. The precipitates were washed with cold buffer solution-A and kept at minus 70 degree C. till ready for analysis.
There were 3 reactive substrates used in this assay (a) buffer solution B; 0.1 M triethanolamine HCl/10 mM EDTA with ph 7.4 (b) 3-HMG-CoA solution; 150 mu.moles/culture medium, (c) NADPH solution; 2 mu.moles/culture medium.
The microsomal suspension was then mixed with reaction substrates in a centrifuge tube and allowed to react at 37 degree C. for 30 minutes, then added with 20 mu 1 of 10 mM sodium arsenous solution and allowed to react for 1 minute, and then added with 100 µl of citrate buffer solution (2M sodium citrate/3 M sodium tungstate, with Ph of 3.5) at 37 degree C. for 10 minutes, then centrifuged at 30,000 times gram for 15 minutes to remove protein. […]
The mixture was then added with 20 µl of DTNB buffer solution (3 mM DTNB/0.1M triethanolamine/10 mM EDTA with PH of 7.4). The absorbance of this mixture was determined at wave length of 412 nm to calculate the amount of CoA that is the activity of 3-HMG-CoA reductase.

| SMILES | microscopic features of the liver (FIGS. 2B-2F) [1] | survival (ICR female mice) | macrophage lipid cell complex in the aorta walls (FIGS. IB-IF) [2] | Inhibition on the activity of 3-HMG-CoA reductase in percentage (%) (3-HMG-CoA reductase) | body weight (ICR female mice) |
| --- | --- | --- | --- | --- | --- |
| O=c1c(O)c(-c2ccc(O)cc2)oc2cc(O)cc(O)c12 [Kaempherol, 3,5,7,4′ tetra-hydroxy-flavone] | almost all of the liver cells are normal without containing fat particles | alive at day 31 | no or a very thin layer of macrophage lipid cell complex | – | – |
| O=c1c(O)c(-c2ccc(O)c(O)c2)oc2cc(O)cc(O)c12 [Quercetin, 3,5,7,3′,4′ penta-hydroxy flavone] | almost all of the liver cells are normal without containing fat particles | alive at day 31 | no or a very thin layer of macrophage lipid cell complex | 32 | – |
| C[C@@H]1O[C@@H](OC[C@H]2O[C@@H](Oc3c(-c4ccc(O)c(O)c4)oc4cc(O)cc(O)c4c3=O)[C@H](O)[C@@H](O)[C@@H]2O)[C@H](O)[C@H](O)[C@H]1O [Rutin, quercetin-3-rutinoside] | – | alive at day 31 | – | 45 | no body weight loss |
| O=c1cc(-c2ccc(O)cc2)oc2c(C3O[C@H](CO)[C@@H](O)[C@H](O)[C@H]3O)c(O)cc(O)c12 (stereo partly drawn) [Vitexin, 8-D-glucosyl-4′,5,7 trihydroxy-flavone] | almost all of the liver cells are normal without containing fat particles | alive at day 31 | no or a very thin layer of macrophage lipid cell complex | 30 | no body weight loss |
